Measurements reported in ChEMBL document CHEMBL5215000, “Seco B-Type Oligomers from Pinus massoniana Expand the Procyanidin Chemical Space and Exhibit Dental Bioactivity” (2022).

Tested on: Dentine
Assay: Bio-modification of human mid coronal dentine assessed as fold change in complex modulus at 0.2% w/v incubated for 1 hrs by dynamic mechanical analysis
Assay type: functional

SMILES | fold change (FC)
Oc1cc(O)c(C[C@@H]2Oc3c4c(cc(O)c3[C@H]2c2ccc(O)c(O)c2)O[C@H](c2ccc(O)c(O)c2)[C@@H](O)C4)c(O)c1 | 4.2
Oc1cc(O)c(C[C@H](O)[C@H](c2ccc(O)c(O)c2)c2c(O)cc(O)c3c2O[C@@H](c2ccc(O)c(O)c2)[C@@H](O)C3)c(O)c1 | 3.3
Oc1cc(O)c2c(c1)O[C@H]([C@H](c1ccc(O)c(O)c1)c1c(O)cc(O)c3c1O[C@H](c1ccc(O)c(O)c1)[C@@H](O)C3)C2 | 5.2
Oc1cc(O)c(C[C@H](O)[C@H](c2ccc(O)c(O)c2)c2c(O)cc(O)c3c2O[C@H](c2ccc(O)c(O)c2)[C@@H](O)C3)c(O)c1 | 3.3
Oc1cc(O)c(C[C@H](O)[C@H](c2ccc(O)c(O)c2)c2c(O)cc(O)c3c2O[C@@H](c2ccc(O)c(O)c2)[C@H](O)C3)c(O)c1 | 3.3
